Source: patent US20090012156A1, “Composition comprising polyphenol” (Conopco, Inc. d/b/a Unilever, priority 2007, published 2009)

Tested on: 2nd order mesenteric artery side branches of Spontaneously Hypertensive Rats (SHR)
Test: Reactivity of isolated arteries: dilator effect during contraction induced by 40 mmol/L K+
Set-up: species or system rat
Procedure: Segments of 2nd order mesenteric artery side branches were isolated from 14 weeks old male Spontaneously Hypertensive Rats (SHR). Two stainless-steel wires (diameter 40 μm) were inserted in the lumen of the arterial segments, which were then mounted in organ chambers between an isometric force transducer and a displacement device (Danish Myotechnology by J. P. Trading, Denmark). The organ chambers were filled with Krebs-Ringer bicarbonate solution which was maintained at 37° C. and continuously aerated with 95% O2 and 5% CO2. Before the actual experiments started, arterial segments were stretched to their individual optimal lumen diameter for mechanical performance, i.e. the diameter at which maximal contractile responses to noradrenaline (10 μmol/L) were obtained. In each experiment four second order mesenteric resistance arterial segments from one animal were mounted in individual organ chambers and studied in parallel. […]
For the analysis of the acute effects of the mixtures on K+-induced contraction, increasing concentrations of the mixtures (0.1-100 umol/L) were administered on top of the stable contractions and were left in contact with the arterial segments for 5-7 min to make sure that either no effect or a stable effect was reached. […] In this way, the effects of different exposure times to the mixtures (7, 30 and 90 min) on K+-induced contraction, could be evaluated. […]
Active wall tension (AWT) was calculated by subtracting the resting wall tension.
All contractile responses (AWT in the presence of stimuli, solvent and mixes of ingredients) were next expressed as a percentage of the contractile response (AWT) to 10 uM noradrenaline at the end of the normalisation period, i.e. before exposure of the arterial segments to solvent or mixes of ingredients.
Effects of increasing concentrations of the solvent and of the mixes (0.1 to 100 umol/L) during contractile responses to 40 mmol/L K+, were calculated as % change of the level of pre-contraction. […]

Structure (SMILES): COc1cc(-c2oc3cc(O)cc(O)c3c(=O)c2O)ccc1O [isorhamnetin, 3′methoxy-3,4,5,7-tetrahydroxyflavone]
- EC50 (Rattus norvegicus, isolated SHR mesenteric resistance arteries pre-contracted with 40 mmol/L K+, effect worked out by comparing mixtures (Plackett-Burman design), corrected for solvent, read-out: EC50 of dilation of the arteries): 3.1 µM
- maximum dilatation (at 100 micromolar of isorhamnetin, isolated SHR mesenteric arteries pre-contracted with 40 mmol/L K+): 94%
- influence on the dilation of the arteries (at a low concentration, isolated SHR mesenteric arteries, K+-induced contraction): significant influence on the dilation of the arteries
